The source of these data is US20230028880A1, “CD38-BINDING AGENTS AND USES THEREOF” (Biohaven Therapeutics Ltd., priority 2019, published 2023).

The assay has as its system Effector cells (ADCC reporter cells) with Daudi cells. The assay can be described thus: ADCC reporter assay: Daudi cells, IVIG and ADCC reporter effector cells (luciferase, RLU). The assay is classed as cell-based. To be noted: IVIG; for Luminescence, ADCC reporter assay: duplicate columns. In outline:
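Daudi targets (5,000/well) were combined with compound (8 concentrations, ½-log steps), human IVIG added at 40 ug/mL, and 37,500 ADCC reporter effector cells per well. After 18 h at 37° C and equilibration to 25° C, luciferase luminescence was read.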

pEC50: −log10 of the molar value. Values joined by “and” are separate entries in the source; they are usually repeats but may differ in a detail not shown here. Equal entries are not always repeated.

In general, pEC50 refers to the negative decadic logarithm of the EC50, by convention in mol/L. For `CCCCC[C@@H]1NC(=O)[C@H](CCCNC(=N)N)NC(=O)[C@H](C)NC(=O)CSC[C@@H](C(=O)NCCOCCOCCOCCOCCOCCOCCn2nnc3c2CCC2C(CC3)C2COC(=O)N2CCC(C(=O)NCC(=O)N[C@H](CCC(=O)N[C@H](CCC(=O)N[C@H](CCC(=O)O)C(=O)N[C@H](CCC(=O)N[C@H](CCC(=O)NCC(=O)NCC(=O)N[C@@H](CC(=O)O)C(=O)N[C@H]3CSSC[C@@H](C(=O)N[C@H](C(=O)O)[C@@H](C)O)NC(=O)[C@H](Cc4c[nH]c5ccccc45)NC(=O)[C@H](C(C)C)NC(=O)[C@H](CC(C)C)NC(=O)[C@H](CCC(=O)O)NC(=O)CNC(=O)[C@H](CC(C)C)NC(=O)[C@H](Cc4c[nH]cn4)NC(=O)[C@H](Cc4c[nH]c5ccccc45)NC(=O)[C@H](C)NC3=O)C(=O)O)C(=O)O)C(=O)O)C(=O)O)CC2)NC(=O)[C@H](CC(=O)O)NC(=O)[C@H](CCCCC)NC(=O)[C@H](Cc2ccc(-c3ccccc3)cc2)NC(=O)[C@H](CC(C)C)NC(=O)[C@H](C(C)C)NC(=O)CNC(=O)[C@H](CC(=O)O)NC(=O)[C@H](Cc2c[nH]cn2)NC(=O)[C@H](Cc2ccc(O)cc2)NC1=O` (stereo partly shown) [I-17], the pEC50 (ADCC reporter assay) was 8.23. Moreover, the EC70 result (ADCC reporter cells, 18 h, one set of experiment (FIG. 2)) was “about 2.7 nM”. The “Luminescence, ADCC reporter assay” value was 26632 RLU and 25947 RLU (compound 0.3 nM, 18 h); 32303 RLU and 36226 RLU (compound 1 nM, 18 h); 50671 RLU and 54979 RLU (compound 3 nM, 18 h); 63014 RLU and 62702 RLU (compound 10 nM, 18 h); 69329 RLU and 70980 RLU (compound 30 nM, 18 h); 70908 RLU and 75233 RLU (compound 100 nM, 18 h). The “Luminescence, ADCC reporter assay” value by setting is: (compound 300 nM, 18 h) 69068 RLU and 69848 RLU; (compound 1000 nM, 18 h) 60578 RLU and 59440 RLU.
